Key:
[1] = tested on: α-Glucosidase (Saccharomyces cerevisiae); assay: Steady-state velocity fit and double reciprocal plot (inhibition type); assay type: biochemical; details: for constant α: Equation (2), noncompetitive inhibition; for type of inhibition: double reciprocal plot; for Ki: steady-state velocity fit, read-out: free AGH binding inhibition constant (Ki)
Procedure: The reaction progress of AGH inhibition by ECG was measured under the pseudo-first-order conditions ([I], initiated by the addition of 50 μL AGH to 300 μL of a mixture of tested compound and substrate and monitor the liberation of free pNP at 405 nm. The final pNPG concentrations ranged from 0.18 to 1.44 mM. The compound investigated concentrations were 0, 0.7, 1.4, 2.8, 5.6, 11.2 μM. The reading was recorded every 20 s during 4000 s and blank absorbance values were subtracted from the data before subsequent calculations. Similar experiments were performed with EGCG to measure its reaction progress curve. Progress curves were fitted to the equation (Equation (1)) described by Williams and Morrison to calculate kobs values for slow binding (i.e., time-dependent) inhibition. (1) A=vs×t+(vi−vs)(1−e^−kobs×t/kobs)+A0 where A is the absorbance; vi and vs are initial and steady-state velocities (expressed in A/time), respectively; t is time; kobs is the pseudo first order rate constant for the approach to steady-state and A0 is the initial blank absorbance at 405 nm. In order to determine inhibition modality and calculate inhibition constants obtained, steady-state rates from progress curves were subsequently fitted to the following steady-state velocity equation (Equation (2)) described by Robert A. Copeland [34] for noncompetitive inhibition:(2) v=vmax×[S]/[S]×(1+[I]/αKi)+Km×(1+[I]/Ki) where v is velocity; Vmax refers to the maximum velocity; [I] is concentration of inhibition; Km refers to Michaelis constant; α is constant.
The inhibition type of the tested compounds against AGH was determined using a double reciprocal plot of 1/v as a function of 1/[S] in terms of intersecting lines converging to the location of the y-axis and the x-axis.

[2] = tested on: α-Glucosidase (Saccharomyces cerevisiae); assay: Surface plasmon resonance (SPR) binding kinetics, immobilized AGH; details: 25 °C, 1:1 Langmuir model
Procedure: Surface plasmon resonance (SPR) experiments were performed to measure the BK parameters between compounds and AGH. After the activation of the surface using NHS and EDC (1:1, v/v), the AGH was immobilized on a CM5 sensor chip (GE healthcare) by using standard amine-coupling at 25 °C with running buffer PBS-P (20 mM phosphate buffer, […], 0.05% surfactant P-20, pH 7.4). The AGH concentration was fixed at 50 ng/µL and the immobilization level of AGH was about 8000 RU (response unit, 1 RU response value is roughly equivalent to 1 pg/mm^2 change of the concentration of the bound substance on the chip surface). After coupling, unreacted NHS ester groups were blocked with ethanolamine. Different concentrations of compounds containing 5% DMSO were serially injected into the channel to evaluate the BK parameters. A reference channel was only activated and blocked to eliminate compound unspecific binding to the surface of the chip. An extra wash with 50% DMSO was added to remove the last remaining sample in the pipeline. The on-rates and the off-rates of the compounds were obtained by fitting the data sets to 1:1 Langmuir binding model using the Biacore T200 Evaluation Software (GE Healthcare).

[3] = tested on: α-Glucosidase (Saccharomyces cerevisiae); assay: Mutual exclusivity study (Yonetani-Theorell); assay type: biochemical; details: combination of ECG with EGCG, Equation (8)
Procedure: Mutual exclusivity studies were performed by measuring the reaction velocity at several fixed concentrations of one investigated compound while titrating another tested compound with various concentrations, and data were evaluated by the method (Equation (8)) proposed by Yonetanii and Theorell that yielded a value of β for different noncompetitive inhibition by nonlinear regression analysis. (8) 1/vij=1/v0×(1+[I]/Ki+[J]/Kj+[I][J]/βKiKj) where vij is the enzyme velocity in the presence of both compounds at concentrations [I] and [J]; v0 is the velocity in the absence of compound; β is an interaction constant that defines the degree to which binding of one compound perturbs the affinity of the enzyme for the second compound.

[4] = molecular target: α-Glucosidase (Saccharomyces cerevisiae); assay: IC50 determination, AGH enzyme inhibition assay (pNPG substrate); assay type: biochemical; details: 15 min preincubation at 37 °C, 0.36 mM pNPG, mean ± SEM of three experiments
Procedure: Steady-state kinetic studies were carried out on a Multiskan FC Devices. The AGH activity was assayed by adding 50 μL of AGH solution to 300 μL of substrate solution (pNPG was used as the substrate) in 0.1 M PBS buffer (pH 6.8), followed by incubation at 37 °C for 30 min. The AGH activity was measured by monitoring an increase of the p-nitrophenol (pNP) released from substrate pNPG in absorbance at 405 nm.
AGH was preincubated with two tea polyphenols for 15 min at 37 °C, respectively. The reaction was started by the addition of the pNPG (0.36 mM final concentration), and the initial rate was measured by ultraviolet (UV) detector. Linearity of UV response was confirmed with correlation coefficients (R^2) of > 0.99. Data were the means ± standard error of the mean (SEM) of three independent experiments, and were fitted using standard four-parameter logistic models to measure IC50 values by JMP software (version 11.0.0, SAS Institute, Inc., Cary, NC, USA).

[5] = tested on: α-Glucosidase (Saccharomyces cerevisiae); assay: Binding kinetics by reaction progress curve analysis; assay type: biochemical; details: for binding mechanism: kobs versus concentration hyperbolic; for Dissociation Half-Life: ln2 divided by koff (progress curve); for time dependence of inhibition: preincubation and progress curves; for Ki: read-out: Ki* (final equilibrium dissociation constant, true affinity)
From the text: Progress curves were fitted to the equation (Equation (1)) described by Williams and Morrison to calculate kobs values for slow binding (i.e., time-dependent) inhibition. (1) A=vs×t+(vi−vs)(1−e^−kobs×t/kobs)+A0 where A is the absorbance; vi and vs are initial and steady-state velocities (expressed in A/time), respectively; t is time; kobs is the pseudo first order rate constant for the approach to steady-state and A0 is the initial blank absorbance at 405 nm. In order to determine inhibition modality and calculate inhibition constants obtained, steady-state rates from progress curves were subsequently fitted to the following steady-state velocity equation (Equation (2)) described by Robert A. Copeland [34] for noncompetitive inhibition:(2) v=vmax×[S]/[S]×(1+[I]/αKi)+Km×(1+[I]/Ki) where v is velocity; Vmax refers to the maximum velocity; [I] is concentration of inhibition; Km refers to Michaelis constant; α is constant.
(3) kobs=k4+(k3×[I]/Kiapp+[I]) (4) kon=k3/Ki (5) koff=k4 (6) Ki*=Ki/1+k3/k4 where k3 is forward enzyme isomerization rate constant; k4 is reverse enzyme isomerization rate constant, Ki^app is the apparent value of the Ki for the initial encounter complex. Ki was estimated using the following Cheng-prusoff equation (Equation (7)) as described previously for noncompetitive inhibition:(7) Kiapp=Ki×(1+[S]/Km)/((1+α)×([S]/Km))

[6] = tested on: α-Glucosidase (Saccharomyces cerevisiae); assay: Off-rate by rapid dilution approach; assay type: biochemical
Procedure: Among these BK parameters, the off-rate value of acarbose was determined by applying the rapid dilution approaches, which were readily available from the references [35, 49].

[7] = progress curve analysis, two-step induced-fit model

SMILES | constant α [1] | type of inhibition [1] | Ki [1] [nM] | koff [2] [s⁻¹] | kon [2] [M⁻¹ s⁻¹] | β-value (interaction constant) [3] | IC50 [4] [nM] | binding mechanism [5] | Dissociation Half-Life [5] [min] | time dependence of inhibition [5] | koff [5, 7] | kon [5, 7] | Ki ([5]; progress curve analysis) [nM] | Dissociation Half-Life ([6]; ln2 divided by koff (rapid dilution)) [min] | koff ([6]; rapid dilution approach) | kon ([5]; acarbose, Supplementary Table S2)
O=C(O[C@@H]1Cc2c(O)cc(O)cc2O[C@@H]1c1cc(O)c(O)c(O)c1)c1cc(O)c(O)c(O)c1 [EGCG, epigallocatechin gallate] | 5.6 | noncompetitive inhibitor | 200 | 0.0038 | 5700 | 4133197 | 410 ± 100 | two-step induced-fit mechanism | 6 | slow binding inhibition | 1.9 ± 0.2 10^−3 s^−1 | 2.4 ± 0.3 10^3 M^−1s^−1 | 160 ± 30 |  |  | 
O=C(O[C@@H]1Cc2c(O)cc(O)cc2O[C@@H]1c1ccc(O)c(O)c1)c1cc(O)c(O)c(O)c1 [ECG, Epicatechin gallate] | 1.3 | noncompetitive inhibitor | 1100 | 0.0073 | 6300 | 4133197 | 1500 ± 300 | two-step induced-fit mechanism | 7.2 | slow binding inhibitor | 1.6 ± 0.3 10^−3 s^−1 | 0.2 ± 0.05 10^3 M^−1s^−1 | 1000 ± 300 |  |  | 
C[C@H]1O[C@H](O[C@H]2[C@H](O)[C@@H](O)[C@@H](O[C@H]3[C@H](O)[C@@H](O)C(O)O[C@@H]3CO)O[C@@H]2CO)[C@H](O)[C@@H](O)[C@@H]1N[C@H]1C=C(CO)[C@@H](O)[C@H](O)[C@H]1O (some centres unmarked) [Acarbose, acarbose] |  |  |  |  |  |  |  |  |  |  |  |  |  | 606 | 1.9 ± 0.2 10^−5 s^−1 | 2.1 ± 0.3 10^6 M^−1s^−1

— publication PMC6770063, “Utilizing the Combination of Binding Kinetics and Micro-Pharmacokinetics Link in Vitro α-Glucosidase Inhibition to in Vivo Target Occupancy” (Biomolecules, 2019)
